Results taken from ChEMBL document CHEMBL1201862, “PubChem BioAssay data set” (2004).
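Step 1: Grow cells in 96-well plates. Step 2: Expose to compound for 48 hours at 5 concentrations. Step 3: Interpolate endpoints linearly; if unreached, use highest concentration. GI50 = concentration required for 50% inhibition of growth.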 Calls of active or inactive are those of the source. Rule as the data show it: active = GI50 up to about 1.1 µM and inactive = higher.

Assays:
Test in all cases: NCI tumour cell line growth inhibition, 48 h
MOLT-4 = test system: MOLT-4
HCT-15 = test system: HCT-15
TK-10 = test system: TK-10
CCRF-CEM = test system: CCRF-CEM
HCT-116 = test system: HCT-116
HL-60 = test system: HL-60
SNB-75 = test system: SNB-75
HT-29 = test system: HT-29
M14 = test system: M14
RXF 393 = test system: RXF 393
OVCAR-5 = test system: OVCAR-5
OVCAR-4 = test system: OVCAR-4
KM12 = test system: KM12
EKVX = test system: EKVX
K562 = test system: K562
HOP-62 = test system: HOP-62
OVCAR-3 = test system: OVCAR-3
CAKI-1 = test system: CAKI-1
IGROV-1 = test system: IGROV-1
HOP-18 = test system: HOP-18
NCI-H460 = test system: NCI-H460
SK-OV-3 = test system: SK-OV-3
U-251 = test system: U-251
786-0 = test system: 786-0
DLD-1 = test system: DLD-1
SK-MEL-2 = test system: SK-MEL-2
OVCAR-8 = test system: OVCAR-8
UACC-257 = test system: UACC-257
HOP-92 = test system: HOP-92
SW-620 = test system: SW-620
SNB-19 = test system: SNB-19
M19-MEL = test system: M19-MEL
ACHN = test system: ACHN
KM-20L2 = test system: KM-20L2
SF-539 = test system: SF-539
SR = test system: SR
A498 = test system: A498
DMS-273 = test system: DMS-273
NCI-H522 = test system: NCI-H522
LXFL 529 = test system: LXFL 529
HCC 2998 = test system: HCC 2998
NCI-H226 = test system: NCI-H226
UACC-62 = test system: UACC-62
COLO 205 = test system: COLO 205
SK-MEL-28 = test system: SK-MEL-28
LOX IMVI = test system: LOX IMVI
SNB-78 = test system: SNB-78
UO-31 = test system: UO-31
RXF 631 = test system: RXF 631
SF-295 = test system: SF-295
NCI-H23 = test system: NCI-H23
SF-268 = test system: SF-268
SN12C = test system: SN12C
SK-MEL-5 = test system: SK-MEL-5
Malme-3M = test system: Malme-3M
A549 = test system: A549
DMS-114 = test system: DMS-114
RPMI-8226 = test system: RPMI-8226
XF498 = test system: XF498

COC(=O)C12C3C4C5C3(C#N)C1C5(C(=O)OC)C42C(=O)N(C(C)C)C(C)C (centres undefined)
GI50 (MOLT-4): 66.2 µM (inactive) | GI50 (HCT-15): > 42.2 µM | GI50 (TK-10): > 100 µM (inactive) | GI50 (CCRF-CEM): > 46 µM (inactive) | GI50 (HCT-116): 39.9 µM (inactive) | GI50 (HL-60): > 43.7 µM (inactive) | GI50 (SNB-75): > 100 µM (inactive) | GI50 (HT-29): > 100 µM (inactive) | GI50 (M14): > 100 µM (inactive) | GI50 (RXF 393): > 100 µM (inactive) | GI50 (OVCAR-5): > 100 µM (inactive) | GI50 (OVCAR-4): > 100 µM (inactive) | GI50 (KM12): > 100 µM (inactive) | GI50 (EKVX): > 100 µM (inactive) | GI50 (K562): > 49.4 µM (inactive) | GI50 (HOP-62): > 100 µM (inactive) | GI50 (OVCAR-3): > 100 µM (inactive) | GI50 (CAKI-1): > 100 µM (inactive) | GI50 (IGROV-1): > 100 µM (inactive) | GI50 (HOP-18): > 100 µM (inactive) | GI50 (NCI-H460): > 57.5 µM (inactive) | GI50 (SK-OV-3): > 100 µM (inactive) | GI50 (U-251): > 78 µM (inactive) | GI50 (786-0): > 100 µM (inactive) | GI50 (DLD-1): > 50.2 µM (inactive) | GI50 (SK-MEL-2): > 100 µM (inactive) | GI50 (OVCAR-8): > 63 µM (inactive) | GI50 (UACC-257): > 100 µM (inactive) | GI50 (HOP-92): > 100 µM (inactive) | GI50 (SW-620): > 26.7 µM (inactive) | GI50 (SNB-19): > 100 µM (inactive) | GI50 (M19-MEL): > 100 µM (inactive) | GI50 (ACHN): > 100 µM (inactive) | GI50 (KM-20L2): > 100 µM (inactive) | GI50 (SF-539): > 100 µM (inactive) | GI50 (SR): 13.9 µM (inactive) | GI50 (A498): > 100 µM (inactive) | GI50 (DMS-273): > 42.5 µM (inactive) | GI50 (NCI-H522): > 33.4 µM (inactive) | GI50 (LXFL 529): > 92.9 µM (inactive) | GI50 (HCC 2998): > 96.6 µM (inactive) | GI50 (NCI-H226): > 100 µM (inactive) | GI50 (UACC-62): > 100 µM (inactive) | GI50 (COLO 205): > 60.4 µM (inactive) | GI50 (SK-MEL-28): > 100 µM (inactive) | GI50 (LOX IMVI): 58.1 µM (inactive) | GI50 (SNB-78): > 100 µM (inactive) | GI50 (UO-31): > 100 µM (inactive) | GI50 (RXF 631): > 95.5 µM (inactive) | GI50 (SF-295): > 100 µM (inactive) | GI50 (NCI-H23): > 100 µM (inactive) | GI50 (SF-268): > 100 µM (inactive) | GI50 (SN12C): > 100 µM (inactive) | GI50 (SK-MEL-5): > 100 µM (inactive) | GI50 (Malme-3M): > 100 µM (inactive) | GI50 (A549): > 100 µM (inactive) | GI50 (DMS-114): > 100 µM (inactive) | GI50 (RPMI-8226): > 48.6 µM (inactive) | GI50 (XF498): > 63.7 µM (inactive)
